{"source": "patent US20240148821A1", "about": "“PHARMACEUTICAL USE OF CYCLIC PEPTIDE COMPOUND” (CHUGAI SEIYAKU KABUSHIKI KAISHA, priority 2021, published 2024)", "note": "Numbered stars: 1 amine (or outer) side, 2 acyl side, 3 side chain; on linkers, the order of the positions; unused ones are H or OH. Bridge positions count the residues as written; N and C are the ends. Square brackets hold non-standard residues; d marks the D form. Peptide text beside a SMILES is read from it. * marks the point of attachment. hPhe(3,5-F2-4-CF3) = N[C@@H](CCc1cc(F)c(C(F)(F)F)c(F)c1)C(=O)O; hPhe(3-Cl-4-CF3) = N[C@@H](CCc1ccc(C(F)(F)F)c(Cl)c1)C(=O)O; hPhe(3-F,4-CF3) = N[C@@H](CCc1ccc(C(F)(F)F)c(F)c1)C(=O)O; NEtPhe(4-CF3) = CCN[C@@H](Cc1ccc(C(F)(F)F)cc1)C(=O)O; NMePhe(4-Cl) = CN[C@@H](Cc1ccc(Cl)cc1)C(=O)O; X29 = O=C([C@H](CCc1cc(Cl)ccc1F)N[*:1])[*:2]; NMePhe(4-I) = CN[C@@H](Cc1ccc(I)cc1)C(=O)O; NMedβ3hAla = C[C@H](CC(=O)[*:2])N(C)[*:1]; NMeGly(cPent) = CN[C@H](C(=O)O)C1CCCC1; Phe(3-I) = N[C@@H](Cc1cccc(I)c1)C(=O)O; Pro(4,4-F2) = O=C(O)[C@@H]1CC(F)(F)CN1; Ala(cPent) = N[C@@H](CC1CCCC1)C(=O)O; mXylylene = c1cc(C[*:1])cc(C[*:2])c1; NMeCha = CN[C@@H](CC1CCCCC1)C(=O)O; cisHyp = O=C(O)[C@@H]1C[C@H](O)CN1; NMeChg = CN[C@H](C(=O)O)C1CCCCC1; NMeF = CN[C@@H](Cc1ccccc1)C(=O)O; NMeI = CC[C@H](C)[C@H](NC)C(=O)O; X58 = CNCCOCCN(CC(=O)[*:2])[*:1]; NMeD = CN[C@@H](CC(=O)O)C(=O)O; NMeHpra = C#CCC[C@H](NC)C(=O)O; NMeL = CN[C@@H](CC(C)C)C(=O)O; NMeV = CN[C@H](C(=O)O)C(C)C; d(β3hA) = C[C@@H](N)CC(=O)O; NMeA = CN[C@@H](C)C(=O)O; Piperidide = C1CCN(*)CC1; Ac5c = NC1(C(=O)O)CCCC1; Aze = O=C(O)[C@@H]1CCN1; Ac4c = NC1(C(=O)O)CCC1; Sar = CNCC(=O)O"}
{"target": "protein-protein interaction between Kras and SOS1 (biotin-tagged human Kras loaded with GDP, His-tagged human SOS1) (Homo sapiens (Human), UniProt P01116, G12D)", "assay": "Protein-protein interaction inhibition between Kras and SOS1 (KrasG12D-SOS PPI) using AlphaScreen;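 also: kras produced in E. coli, Ni-coupled donor beads and streptavidin acceptor beads, excitation 680 nm with emission detected at 520–620 nm via singlet oxygen transfer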", "assay_type": "biochemical", "settings": "AlphaScreen; biotin-tagged human Kras loaded with GDP, His-tagged human SOS1; read-out: KRAS G12D-SOS PPI IC50", "units": {"IC50": "nM"}}
{"smiles": "CC[C@H](C)[C@@H]1NC(=O)[C@H](C)N(C)C(=O)C[C@@H](C)NC(=O)[C@H](CC(C)C)N(C)C(=O)[C@H](Cc2ccccc2)N(C)C(=O)[C@H](CC(C)C)NC(=O)[C@H](Cc2cccc(I)c2)NC(=O)CN(C)C(=O)[C@H](Cc2ccc(Cl)cc2)N(C)C(=O)CN(C)C(=O)CN(C)C1=O", "note": "[Compound 65] (cyclo(I[Sar][Sar][NMePhe(4-Cl)][Sar][Phe(3-I)]L[NMeF][NMeL][d(β3hA)][NMeA]))", "IC50": 240}
{"smiles": "CC[C@H](C)[C@@H]1NC(=O)[C@H]([C@@H](C)CC)N(C)C(=O)C[C@@H](C(=O)N2CCCCC2)N(C)C(=O)[C@H](C(C)C)N(C)C(=O)C2(CCCC2)NC(=O)[C@@H]2CCCN2C(=O)[C@H](CCc2ccc(C(F)(F)F)c(Cl)c2)NC(=O)CN(C)C(=O)[C@H](CC2CCCCC2)N(C)C(=O)[C@@H]2CCN2C(=O)[C@H](C)N(C)C1=O", "note": "[Compound 1863] ([NMeI]I[NMeA][Aze][NMeCha][Sar][hPhe(3-Cl-4-CF3)]P[Ac5c][NMeV][NMeD]-Piperidide; lactam N-11)", "IC50": 10}
{"smiles": "CC(C)C[C@H]1C(=O)N[C@@H](CC2CCCC2)C(=O)N(C)[C@@H](C)C(=O)N2CC[C@H]2C(=O)N(C)[C@@H](CC2CCCCC2)C(=O)N(C)CC(=O)N[C@@H](CCc2ccc(C(F)(F)F)c(Cl)c2)C(=O)N2CCC[C@H]2C(=O)NC2(CCCC2)C(=O)N(C)[C@@H](C(C)C)C(=O)N(C)[C@H](C(=O)N2CCCCC2)CC(=O)N1C", "note": "[Compound 84] ([NMeL][Ala(cPent)][NMeA][Aze][NMeCha][Sar][hPhe(3-Cl-4-CF3)]P[Ac5c][NMeV][NMeD]-Piperidide; lactam N-11)", "IC50": 73}
{"smiles": "CC[C@H](C)[C@@H]1NC(=O)[C@H](CC(C)C)N(C)C(=O)C[C@@H](C(=O)N2CCCCC2)N(C)C(=O)[C@H](CC(C)C)N(C)C(=O)C2(CCCC2)NC(=O)[C@@H]2C[C@H](OCc3cccc(C)c3)CN2C(=O)[C@H](CCc2ccc(C(F)(F)F)c(F)c2)NC(=O)CN(C)C(=O)[C@H](CC2CCCCC2)N(C)C(=O)CN(C)C(=O)CN(C)C1=O", "note": "[Compound 2141] ([NMeL]I[Sar][Sar][NMeCha][Sar][hPhe(3-F,4-CF3)][cisHyp](mXylylene)[Ac5c][NMeL][NMeD]-Piperidide; lactam N-11)", "IC50": 72}
{"smiles": "CC[C@H](C)[C@@H]1NC(=O)[C@H](C)N(C)C(=O)C[C@@H](C)NC(=O)[C@H](CC(C)C)N(C)C(=O)[C@H](Cc2ccccc2)N(C)C(=O)[C@H](CC(C)C)NC(=O)[C@H](CCc2cc(Cl)ccc2F)NC(=O)CN(C)C(=O)[C@H](Cc2ccc(Cl)cc2)N(C)C(=O)CN(C)C(=O)CN(C)C1=O", "note": "[Compound 2094] (cyclo(I[Sar][Sar][NMePhe(4-Cl)][Sar][X29]L[NMeF][NMeL][d(β3hA)][NMeA]))", "IC50": 200}
{"smiles": "CC[C@H](C)[C@@H]1NC(=O)[C@H](CC(C)C)N(C)C(=O)C[C@@H](C)N(C)C(=O)[C@H](C2CCCCC2)N(C)C(=O)C2(CCC2)NC(=O)[C@@H]2CC(F)(F)CN2C(=O)[C@H](CCc2cc(F)c(C(F)(F)F)c(F)c2)NC(=O)CN(C)C(=O)[C@H](Cc2ccc(C(F)(F)F)cc2)N(CC)C(=O)[C@@H]2CCN2C(=O)[C@H](C)NC1=O", "note": "[Compound 203] (cyclo(A[Aze][NEtPhe(4-CF3)][Sar][hPhe(3,5-F2-4-CF3)][Pro(4,4-F2)][Ac4c][NMeChg][NMedβ3hAla][NMeL]I))", "IC50": 31}
{"smiles": "C#CCC[C@H]1C(=O)N[C@@H]([C@@H](C)CC)C(=O)N(C)[C@@H](C)C(=O)N2CC[C@H]2C(=O)N(C)[C@@H](Cc2ccc(I)cc2)C(=O)N(C)CC(=O)N[C@@H](CCc2ccc(C(F)(F)F)c(Cl)c2)C(=O)N2CCC[C@H]2C(=O)NC2(CCCC2)C(=O)N(C)[C@@H](C2CCCCC2)C(=O)N(C)[C@H](C)CC(=O)N1C", "note": "[Compound 961] (cyclo([Ac5c][NMeChg][NMedβ3hAla][NMeHpra]I[NMeA][Aze][NMePhe(4-I)][Sar][hPhe(3-Cl-4-CF3)]P))", "IC50": 12}
{"smiles": "CC[C@H](C)[C@@H]1NC(=O)[C@H](CC(C)C)N(C)C(=O)C[C@@H](C(=O)N(C)C)N(C)C(=O)[C@H](C2CCCC2)N(C)C(=O)C2(CCCC2)NC(=O)CN(CCOCCNC)C(=O)[C@H](CCc2ccc(C(F)(F)F)c(Cl)c2)NC(=O)CN(C)C(=O)[C@H](CC2CCCCC2)N(C)C(=O)[C@@H]2CCN2C(=O)[C@H](C)N(C)C1=O", "note": "[Compound 2183, (3S,6S,9S,13S,16S,25S,31S,34S)-25-[2-[3-chloro-4-(trifluoromethyl)phenyl]ethyl]-31-(cyclohexylmethyl)-16-cyclopentyl-9-isobutyl-N,N,3,4,10,14,17,29,32-nonamethyl-23-[2-[2-(methylamino)ethoxy]ethyl]-6-[(1S)-1-methylpropyl]-2,5,8,11,15,18,21,24,27,30,33-undecaoxo-spiro[1,4,7,10,14,17,20,23,26,29,32-undecazabicyclo[32.2.0]hexatriacontane-19,1′-cyclopentane]-13-carboxamide] ([NMeL]I[NMeA][Aze][NMeCha][Sar][hPhe(3-Cl-4-CF3)][X58][Ac5c][NMeGly(cPent)][NMeD]-NMe2; lactam N-11)", "IC50": 1.9}
{"smiles": "CC[C@H](C)[C@@H]1NC(=O)[C@H](CC(C)C)N(C)C(=O)C[C@@H](C(=O)N2CCCCC2)N(C)C(=O)[C@H](C2CCCC2)N(C)C(=O)C2(CCCC2)NC(=O)[C@@H]2CCCN2C(=O)[C@H](CCc2ccc(C(F)(F)F)c(F)c2)NC(=O)CN(C)C(=O)[C@H](CC2CCCCC2)N(C)C(=O)[C@@H]2CCN2C(=O)[C@H](C)N(C)C1=O", "note": "[Compound 563] ([NMeL]I[NMeA][Aze][NMeCha][Sar][hPhe(3-F,4-CF3)]P[Ac5c][NMeGly(cPent)][NMeD]-Piperidide; lactam N-11)", "IC50": 1.1}
